US20260132125A1, “PESTICIDALLY ACTIVE FUSED BICYCLIC HETEROAROMATIC COMPOUNDS” (priority 2022, published 2026)

Legend:
Format in all cases: in vivo
Plutella xylostella [1] = assay: Example B5: activity against Plutella xylostella (diamond back moth), artificial diet, eggs; details: 192 h, 8 days after infestation, read-out: effect in at least one of the two categories (mortality or growth inhibition)
Outline: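 Artificial diet in 24-well plates was treated with aqueous dilutions of DMSO stocks, dried, then infested with Plutella eggs. Mortality and growth inhibition were scored against untreated samples 8 days after infestation; application rate 200 ppm.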

Chilo suppressalis = assay: Example B1: activity against Chilo suppressalis (striped rice stemborer), artificial diet; details: for percent control (mortality, anti-feedant effect or growth inhibition) at 200 ppm: 144 h, L2 larvae, 6 days after infestation, read-out: control (at least one of mortality, anti-feedant effect, growth inhibition)
Outline: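 Diet-incorporation surface assay: aqueous dilutions of 10'000 ppm DMSO stock applied to artificial diet, dried; 6-8 L2 larvae/well; read day 6 post-infestation for mortality, antifeedant effect, growth inhibition vs untreated. Active if any category above untreated.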

Diabrotica balteata [2] = assay: Example B2: activity against Diabrotica balteata (corn root worm), maize sprouts; details: 96 h, L2 larvae, 4 days after infestation, read-out: effect in at least one of the two categories (mortality or growth inhibition)
Outline: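 Maize sprouts on agar were sprayed with aqueous test solutions made from 10′000 ppm DMSO stocks, dried, then infested with 6–10 L2 larvae per well. Mortality and growth inhibition were scored against untreated samples 4 days after infestation, at an application rate of 200 ppm.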

Spodoptera littoralis = assay: Example B6: activity against Spodoptera littoralis (Egyptian cotton leaf worm), cotton leaf discs; details: foliar; for percent control (mortality, anti-feedant effect or growth inhibition) at 200 ppm: 72 h, L1 larvae, 3 days after infestation, read-out: control (at least one of mortality, anti-feedant effect, growth inhibition)
Outline: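 Five L1 larvae per sprayed, dried cotton leaf disc on agar. Activity is counted when mortality, anti-feedant effect or growth inhibition exceeds the untreated sample at day 3.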

Pseudoplusia includens = assay: Example B9: Pseudoplusia includens (soybean looper), larvicide, feeding/contact, soybean plants; details: Chrysodeixis includens; for percent effect (mortality or growth inhibition) at 50 ppm: 120 h, L2 larvae, 5 days after infestation, read-out: effect in at least one of the two categories (mortality or growth inhibition); for mortality at 12.5 ppm: Pseudoplusia includens
Outline: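 Soybean plants sprayed, cut and held in dishes on wet filter paper; infested 1 d after application with 5 L2 larvae. Mortality and growth inhibition assessed 5 days after infestation; tested at 50 ppm.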

Myzus persicae [3] = assay: Example B4: activity against Myzus persicae (green peach aphid), intrinsic activity; details: 120 h, test rate 12 ppm, 5 days after infestation
Outline: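 Compounds from 10′000 ppm DMSO stocks were mixed into sucrose solution in 24-well plates sealed with Parafilm. Aphid-infested pea seedlings were set on the membrane and the plate inverted so aphids fed through it. Mortality scored 5 days after infestation.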

Myzus persicae [4] = assay: Example B7a: Myzus persicae feeding/contact activity, sunflower leaf discs; details: foliar, 144 h, mixed ages, 6 days after infestation
Procedure: (§1) Sunflower leaf discs were placed onto agar in a 24-well microtiter plate and sprayed with aqueous test solutions prepared from 10′000 ppm DMSO stock solutions. After drying, the leaf discs were infested with an aphid population of mixed ages. The samples were assessed for mortality 6 days after infestation.

Plutella xylostella [5] = assay: B14b: Plutella xylostella (diamond back moth), larvicide L3, feeding/contact, Chinese cabbage; details: 3 ppm
Description: (§2) Activity of compounds P5, P17 and P21 according to the preparatory examples and of a compound from WO 21/083936 against Spodoptera littoralis (Example B6 above), Chilo suppressalis (Example B1 above), Diabrotica balteata (Example B14a below), Plutella xylostella (Example B14b below) and Pseudoplusia includens (Example B9 above) is summarized in Table B14. B14a: Diabrotica balteata (Corn root worm). Larvicide, feeding/contact 3 Corn seedlings were placed on wetted filter paper in plastic cups, and 3 ml of diluted test solutions were pipetted onto them. The cups were infested with 10 L2 larvae and checked for mortality and growth regulation 5 days after treatment. B14b: Plutella xylostella (Diamond back moth). Larvicide L3, feeding/contact Chinese cabbage plants were sprayed with diluted test solutions in an application chamber. Cut off leaves were placed into petri dishes with wetted filter paper and infested 1 day after application with 10 L3 larvae. Samples were assessed 4 days after infestation for mortality and growth regulation.

Diabrotica balteata [6] = assay: B14a: Diabrotica balteata (corn root worm), larvicide, feeding/contact, corn seedlings
Description: as §2

Myzus persicae [7] = assay: Example B7b: Myzus persicae feeding/contact activity, eggplant leaf discs; details: foliar, 144 h, mixed ages, 6 days after infestation
Procedure: as §1, with “Eggplant” for “Sunflower”

Euschistus heros = assay: Example B3: activity against Euschistus heros (neotropical brown stink bug), soybean leaves; details: 120 h, N2 nymphs, 5 days after infestation, read-out: effect in at least one of the two categories (mortality or growth inhibition)
Outline: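 Soybean leaves on agar sprayed with aqueous dilutions of DMSO stock (10′000 ppm), dried, then infested with N2 nymphs. Mortality and growth inhibition scored against untreated samples 5 days after infestation; application rate 200 ppm.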

Tetranychus urticae = assay: Example B8: activity against Tetranychus urticae (two-spotted spider mite), bean leaf discs; details: foliar, 192 h, mixed population (mobile stages), 8 days after infestation
Procedure: Bean leaf discs on agar in 24-well microtiter plates were sprayed with aqueous test solutions prepared from 10′000 ppm DMSO stock solutions. After drying the leaf discs were infested with a mite population of mixed ages. The samples were assessed for mortality on mixed population (mobile stages) 8 days after infestation.

| Compound | percent effect (mortality or growth inhibition) at 200 ppm (Plutella xylostella [1]) | percent control (mortality, anti-feedant effect or growth inhibition) at 200 ppm (Chilo suppressalis) | percent effect (mortality or growth inhibition) at 200 ppm (Diabrotica balteata [2]) | percent control (mortality, anti-feedant effect or growth inhibition) at 200 ppm (Spodoptera littoralis) | percent effect (mortality or growth inhibition) at 50 ppm (Pseudoplusia includens) | mortality at 12 ppm (Myzus persicae [3]) | mortality at 200 ppm (Myzus persicae [4]) | mortality at 3.12 ppm (Chilo suppressalis) | mortality at 3 ppm (Plutella xylostella [5]) | mortality at 0.8 ppm (Diabrotica balteata [6]) | mortality at 200 ppm (Myzus persicae [7]) | mortality at 3.12 ppm (Spodoptera littoralis) | mortality at 12.5 ppm (Pseudoplusia includens) | percent effect (mortality or growth inhibition) at 200 ppm (Euschistus heros) | mortality at 200 ppm (Tetranychus urticae) |
| --- | --- | --- | --- | --- | --- | --- | --- | --- | --- | --- | --- | --- | --- | --- | --- |
| CNC(=O)c1cc(-n2ncnc2[C@H](C)Nc2ncnc3c(I)cc(Cl)cc23)ncn1 [Compound P14, 6-[5-[(1S)-1-[(6-chloro-8-iodo-quinazolin-4-yl)amino]ethyl]-1,2,4-triazol-1-yl]-N-methyl-pyrimidine-4-carboxamide] | ≥ 80% | ≥ 80% | ≥ 80% | ≥ 80% | ≥ 80% | ≥ 80% | ≥ 80% | – | – | – | – | – | – | – | – |
| C[C@H](Nc1ncnc2c(C(F)(F)F)cc(Cl)cc12)c1ncnn1-c1cnc(C(N)=O)cn1 [Compound P21, 5-[5-[(1S)-1-[[6-chloro-8-(trifluoromethyl)quinazolin-4-yl]amino]ethyl]-1,2,4-triazol-1-yl]pyrazine-2-carboxamide] | ≥ 80% | ≥ 80% | ≥ 80% | ≥ 80% | ≥ 80% | ≥ 80% | – | 0% | 100% | 65% | ≥ 80% | 100% | 40% | – | – |
| C[C@@H](c1ncnn1-c1cc(C(N)=O)ncn1)N(C)c1ncnc2c(C(F)(F)F)cc(Cl)cc12 [Compound P50, 6-[5-[(1S)-1-[[6-chloro-8-(trifluoromethyl)quinazolin-4-yl]-methyl-amino]ethyl]-1,2,4-triazol-1-yl]pyrimidine-4-carboxamide] | ≥ 80% | ≥ 80% | ≥ 80% | ≥ 80% | ≥ 80% | ≥ 80% | – | – | – | – | ≥ 80% | – | – | ≥ 80% | ≥ 80% |
| C[C@H](Nc1ncnc2c(C(F)(F)F)cc(Cl)cc12)c1ncnn1-c1cnc(C(=O)NCC#N)cn1 [Compound P71] | ≥ 80% | ≥ 80% | ≥ 80% | ≥ 80% | – | ≥ 80% | – | – | – | – | – | – | – | – | ≥ 80% |
| C[C@H](Nc1ncnc2c(C(F)(F)F)cc(C(F)(F)F)cc12)c1ncnn1-c1ccc(C(N)=O)cn1 [WO 21/083936 P.157, reference compound] | – | – | – | – | – | – | – | 0% | 65% | 35% | – | 0% | 10% | – | – |
